# Test results reported in patent US20240343726A1, “PYRROLOPYRIDINE-3- AND 4-CARBOXAMIDE COMPOSITIONS AND METHODS FOR CELLULAR PROLIFERATION” (The Rockefeller University, priority 2021, published 2024).
# Key:
# [1] = system: phosphorylation of YAP; assay: pYAP HTRF Assay (HEK 293A Cells); format: cell-based; details: HEK293-A, inhibitory activity of phosphorylation of YAP, read-out: LATS1_ICKA_HEK293A IC50
# Procedure: Use 3× dilution scheme in DMSO through column 10, lastly diluting further by 10× into column 11. Add 100% DMSO in serum-free and complete medium in columns 1 and 12 as a positive and negative control, respectively. To achieve a dilution of 1:500, use two 0.8 ml 96-well deep-well plates (ThermoFisher AB0765) pre-filled with the medium as intermediate (1:20) and final dilution plate (1:25). (Transfer row-wise) • Flick the cell plate carefully, three to four times or until all wells are clear of any residual liquid. Dispense 50 μL of the compound in medium into respective wells row-wise, incubate at 37° C. for 30 min • After a 30-minute incubation, flick the cell plate carefully, three to four times or until all wells are clear of any residual liquid. Dilute stock Lysis Buffer #4 (4×) in deionized water, complemented with blocking solution, the stock of which is 100×*. Add 75 μL 1× lysis buffer+blocking reagent mix into each well. Mix plate on a shaker for 30 min at room temperature • Dilute stock solution of total/phospho-YAP Eu cryptate & d2 antibody (each) in the ratio of 1:20 with detection buffer. Mix antibody solutions Eu3+ cryptate and d2 (each for total-Yap and phospho-YAP) in the ratio of 1:1*. Transfer 4 μL of the antibody mixture into two separate small-volume 384-well plates assigned for total-YAP and phospho-YAP. Give a short spin to the plates in a benchtop centrifuge set at 1000 rpm for 30 seconds • Row-wise, homogenize the lysate gently by pipetting it up and down, swirling the tip in the well to help scrape off any adherent cells (avoid bubble formation). Row-wise transfer 16 μL cell lysate into the low-volume 384-well plates with 4 μL total-YAP or phospho-YAP antibody reaction mix for a final volume of 20 μL. Spin down the plates in a benchtop centrifuge set at 1000 rpm for 30 seconds • Seal the plates using a vacuum sealer, incubate overnight at room temperature in the dark on a shaker; read the next day • Use a fluorescence emission read using compatible HTRF® reader—BioTek Synergy NEO. […] Included in Cisbio HTRF YAP total kit (#64YATPEH) & YAP phospho-S127 kit (#64YAPPEH).
# [2] = target: LATS1 kinase (Homo sapiens (Human), UniProt O95835); assay: LATS1 Biochemical HTRF Assay; details: 2 mM ATP; read-out: LATS1_HTRF_2 mM ATP IC50
# Procedure: LATS1 Biochemical HTRF Assay
# MgCl2 and [1 mM] DTT. 1× Enzymatic buffer diluted from 5× Enzymatic buffer*. Add 0.5 μL of 20× compound in 100% DMSO. […] MgCl2, [1 mM] DTIT and [5 mg/mL] BSA. 5×ERR prepared from 5× Enzymatic buffer with [25 mg/mL] BSA. Mix plate on plate shaker set at 1,350 rpm for 30 seconds, then centrifuge plate at 1,000 rpm for 1 minute. Incubate for 30 minutes at 25° C. on plate shaker set to 500 rpm. […] STK Substrate 1-biotin* then add 2 μL [10 mM] ATP. Mix plate on plate shaker set at 1,350 rpm for 30 seconds, then centrifuge plate at 1,000 rpm for 1 minute. Incubate for 40 minutes at 25° C. on plate shaker set to 500 rpm. […] Streptavidin-XL665 with 1×STK Antibody-Cryptate*. Mix plate on plate shaker set at 1,350 rpm for 30 seconds, then centrifuge plate at 1,000 rpm for 1 minute. Incubate for 60 minutes at 25° C. on plate shaker set to 500 rpm, covered from light.
# *(Included in Cisbio KinEASE-STK Si HTRF Kit: 62ST1PEC)
# Chain of LATS1 kinase (O95835 589-1130): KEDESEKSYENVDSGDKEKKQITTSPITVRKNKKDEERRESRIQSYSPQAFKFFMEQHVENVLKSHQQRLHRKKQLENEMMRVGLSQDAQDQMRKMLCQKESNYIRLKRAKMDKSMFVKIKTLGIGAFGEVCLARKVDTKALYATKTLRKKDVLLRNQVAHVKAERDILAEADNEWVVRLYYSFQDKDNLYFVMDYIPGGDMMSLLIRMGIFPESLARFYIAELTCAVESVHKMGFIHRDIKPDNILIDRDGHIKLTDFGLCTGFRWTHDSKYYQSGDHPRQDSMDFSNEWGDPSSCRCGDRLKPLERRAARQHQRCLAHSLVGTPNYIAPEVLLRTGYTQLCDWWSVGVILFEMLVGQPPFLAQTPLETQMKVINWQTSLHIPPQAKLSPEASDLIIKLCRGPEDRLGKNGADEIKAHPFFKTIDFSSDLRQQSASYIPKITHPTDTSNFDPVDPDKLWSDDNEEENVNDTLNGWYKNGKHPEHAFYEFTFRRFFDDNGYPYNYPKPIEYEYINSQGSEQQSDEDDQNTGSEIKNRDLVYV
smiles,measurement,setting,value
"O=C(/N=C1\SCCN1Cc1ccccc1)c1c[nH]c2ncccc12 [Example 1, (Z)—N-(3-benzylthiazolidin-2-ylidene)-1H-pyrrolo[2,3-b]pyridine-3-carboxamide]",IC50,[1],19.7 nM
same,IC50,[2],11.2 nM
"CN(C)Cc1cs/c(=N\C(=O)c2c[nH]c3ncccc23)n1-c1ccccc1Cl [Example 66, (Z)—N-(3-(2-chlorophenyl)-4-((dimethylamino)methyl)thiazol-2(3H)-ylidene)-1H-pyrrolo[2,3-b]pyridine-3-carboxamide]",IC50,[1],327 nM
same,IC50,[2],1.3 nM
"O=C(/N=C1\SCC(CO)N1c1ccccc1)c1c[nH]c2ncccc12 (centres unmarked) [Example 13, (Z)—N-(4-(hydroxymethyl)-3-phenylthiazolidin-2-ylidene)-1H-pyrrolo[2,3-b]pyridine-3-carboxamide]",IC50,[1],45 nM
same,IC50,[2],0.44 nM
"O=C(/N=C1\SCC(CO)CN1c1ccccc1)c1c[nH]c2ncccc12 (centres unmarked) [Example 35, (Z)—N-(5-(hydroxymethyl)-3-phenyl-1,3-thiazinan-2-ylidene)-1H-pyrrolo[2,3-b]pyridine-3-carboxamide]",IC50,[1],392 nM
same,IC50,[2],3.9 nM
"CNC(=O)C1CS/C(=N\C(=O)c2c[nH]c3ncccc23)N(c2ccccc2)C1 (centres unmarked) [Example 34, (Z)-2-((1H-pyrrolo[2,3-b]pyridine-3-carbonyl)imino)-N-methyl-3-phenyl-1,3-thiazinane-5-carboxamide]",IC50,[1],1710 nM
same,IC50,[2],23 nM
O=C(/N=C1\SCCN1C1CCCCC1)c1c[nH]c2ncccc12 [Example 11],IC50,[1],53 nM
same,IC50,[2],1.1 nM
O=C(/N=C1\SCCCN1c1ccccc1Cl)c1ccnc2[nH]ccc12 [Example 27],IC50,[1],5560 nM
same,IC50,[2],200 nM
O=C(/N=C1\SCCCN1C1CCCCC1)c1c[nH]c2ncccc12 [Example 30],IC50,[1],39 nM
same,IC50,[2],2.9 nM
O=C(/N=C1\SCCN1c1cccc(O)c1)c1c[nH]c2ncccc12 [Example 10],IC50,[1],39.2 nM
same,IC50,[2],1.6 nM
O=C(/N=C1\SCCCN1c1ccccc1Cl)c1c[nH]c2ncccc12 [Example 28],IC50,[1],109 nM
same,IC50,[2],1.6 nM
CN(C)Cc1cs/c(=N\C(=O)c2c[nH]c3ncccc23)n1C1CCCCC1 [Example 69],IC50,[1],68 nM
same,IC50,[2],1.8 nM
O=C(/N=C1\SCCN1c1ccc(O)cc1)c1c[nH]c2ncccc12 [Example 8],IC50,[1],687 nM
same,IC50,[2],13 nM
"CN(C)CC1CS/C(=N\C(=O)c2c[nH]c3ncccc23)N1c1ccccc1 (centres unmarked) [Example 14, (Z)—N-(4-((dimethylamino)methyl)-3-phenylthiazolidin-2-ylidene)-1H-pyrrolo[2,3-b]pyridine-3-carboxamide]",IC50,[1],71 nM
same,IC50,[2],4.1 nM
"CN(C)Cc1cs/c(=N\C(=O)c2c[nH]c3ncccc23)n1Cc1ccccc1 [Example 65, (Z)—N-(3-benzyl-4-((dimethylamino)methyl)thiazol-2(3H)-ylidene)-1H-pyrrolo[2,3-b]pyridine-3-carboxamide]",IC50,[1],640 nM
same,IC50,[2],15 nM
O=C(/N=C1\SCCN1c1ccccc1)c1c[nH]c2ncccc12 [Example 2],IC50,[1],23 nM
same,IC50,[2],0.829 nM
O=C(/N=C1\SCCCN1c1ccccc1)c1c[nH]c2ncccc12 [Example 26],IC50,[1],69 nM
COc1ccc(N2CCS/C2=N\C(=O)c2c[nH]c3ncccc23)cc1 [Example 7],IC50,[1],1850 nM
O=C(/N=c1\scc(CN2CCOCC2)n1-c1ccccc1Cl)c1c[nH]c2ncccc12 [Example 67],IC50,[1],147 nM
same,IC50,[2],1.1 nM
CNC(=O)c1cs/c(=N\C(=O)c2ccnc3[nH]ccc23)n1-c1ccccc1Cl [Example 58],IC50,[1],527 nM
same,IC50,[2],48 nM
O=C(/N=C1\SCCN1c1ccccc1O)c1c[nH]c2ncccc12 [Example 6],IC50,[1],1.3 nM
same,IC50,[2],0.59 nM
O=C(/N=c1\sccn1-c1ccccc1Cl)n1ccc2ncccc21 [Example 85],IC50,[1],31600 nM
"CC(O)CN1CCS/C1=N\C(=O)c1c[nH]c2ncccc12 (centres unmarked) [Example 19, (Z)—N-(3-(2-hydroxypropyl)thiazolidin-2-ylidene)-1H-pyrrolo[2,3-b]pyridine-3-carboxamide]",IC50,[1],1720 nM
same,IC50,[2],210 nM
